# According to US9878982B2, “Pyridine derivatives and anti-mycobacterial use thereof” (priority 2014, dated 2018):
# Like-named read-outs stand apart in the source and are kept apart here.
# Assays:
# Vero Cell = experiment: Vero cell cytotoxicity (IC50); type: cell-based; conditions: Chlorocebus sabaeus, Vero, African green monkey kidney cells
# M. tuberculosis H37Rv = experiment: In vitro efficacy test using the H37Rv strain, Microplate Alamar Blue Assay (MABA) MIC; type: cell-based, Mycobacterium tuberculosis; conditions: for MIC: Mycobacterium tuberculosis, H37RV
# [1] = system: Mycobacterium smegmatis strain ATCC19420; experiment: In vitro efficacy test using Mycobacterium smegmatis strain ATCC19420 (MIC); type: cell-based; conditions: CA-MHB + 0.02% Tween 80, 30° C., read after 72 hours; for MIC: Mycolicibacterium smegmatis, ATCC19420, 72 h
# M. tuberculosis H37R = experiment: microbe, parasite or virus in culture; type: cell-based, Mycobacterium tuberculosis; conditions: for MIC: Mycobacterium tuberculosis, H37R, read-out: M. tuberculosis H37R LORA (MIC)
# [2] = Hela cell cytotoxicity (CC50); conditions: human, HeLa cells (human cervical cancer cells), CC50_Hela, half of the toxic concentration
# [3] = aerobic, 7H9 medium, Alamar Blue, read-out: M. tuberculosis H37Rv MABA (MIC)
# [4] = wild-type H37Rv strain, two values per compound, read-out: MABA MIC vs. H37Rv
# [5] = wild-type H37Rv strain, two values per compound
SMILES,IC50 (Vero Cell) [µg/mL],MIC (M. tuberculosis H37Rv; [3]) [µg/mL],MIC [1] [µg/mL],MIC (M. tuberculosis H37R) [µg/mL],CC50 [2] [µg/mL],MIC (M. tuberculosis H37Rv; [4]) [µM],MABA MIC vs. H37Rv (M. tuberculosis H37Rv; [5]) [µM],"M. tuberculosis H37Rv MABA (MIC) (M. tuberculosis H37Rv; aerobic, 7H9 medium, Alamar Blue) [µg/mL]",M. smegmatis ATCC19420 MIC [1] [µg/mL],M. tuberculosis H37R LORA (MIC) (M. tuberculosis H37R) [µg/mL]
"COc1ncc(-c2ccc(Cl)cc2)cc1C(c1ccccc1)C(O)(CCN(C)C)c1cccc(Br)c1 (single isomer, unassigned) [Compound 388, 2-(3-bromophenyl)-1-(5-(4-chlorophenyl)-2-methoxypyridin-3-yl)-4-(dimethylamino)-1-phenylbutan-2-ol]",> 32,0.062,0.0156,< 0.125,26.2,–,–,–,–,–
"COc1ncc(-c2ccc(Cl)cc2)cc1C(c1ccccc1)C(O)(CCN(C)C)c1ccc(Br)cc1 (single isomer, unassigned) [Compound 390, 2-(4-bromophenyl)-1-(5-(4-chlorophenyl)-2-methoxypyridin-3-yl)-4-(dimethylamino)-1-phenylbutan-2-ol]",> 32,0.087,0.0625,< 0.125,24.1,–,–,–,–,–
"COc1cccc(C(c2cc(-c3ccc(Cl)cc3)cnc2OC)C(O)(CCN(C)C)c2cc(Cl)cc(Cl)c2)c1OC (single isomer, unassigned) [Compound 395, 1-(5-(4-chlorophenyl)-2-methoxypyridin-3-yl)-2-(3,5-dichlorophenyl)-1-(2,3-dimethoxyphenyl)-4-(dimethylamino)butan-2-ol]",> 32,0.031,0.039,< 0.125,> 64,–,–,–,–,–
"COc1cccc(C(c2cc(-c3ccc(Cl)cc3)cnc2OC)C(O)(CCN(C)C)c2cccc(Cl)c2)c1OC (single isomer, unassigned) [Compound 399]",–,–,≤ 0.0625,–,> 64,–,–,–,–,–
"COc1nc(OC)c(C(c2ccccc2)C(O)(CCN(C)C)c2cccc3ccccc23)cc1-c1ccc(Cl)cc1 (single isomer, unassigned) [Compound 401, 1-(5-(4-chlorophenyl)-2,6-dimethoxypyridin-3-yl)-4-(dimethylamino)-2-(naphthalen-1-yl)-1-phenylbutan-2-ol]",> 32,0.05,0.0312,0.19,> 64,–,–,–,–,–
"COc1ncc(-c2ccccc2)cc1C(c1ccccc1)C(O)(CCN(C)C)c1cccc2ccccc12 (stereo not drawn) [Compound 9, 4-(dimethylamino)-1-(2-methoxy-5-phenylpyridin-3-yl)-2-(naphthalen-1-yl)-1-phenylbutan-2-ol]",> 50,1.08,0.0312,0.72,30.4,0.46,0.36,–,–,–
"COc1ncc(-c2cccnc2)cc1C(c1ccccc1)C(O)(CCN(C)C)c1cccc2ccccc12 (stereo not drawn) [Compound 19, 4-(dimethylamino)-1-(6-methoxy-[3,3′-bipyridin]-5-yl)-2-(naphthalen-1-yl)-1-phenylbutan-2-ol]",> 50,2.85,0.5,3.11,10.3,–,–,–,–,–
"COc1ncc(-c2ccccc2)cc1C(c1ccccc1)C(O)(CCN(C)C)c1ccccc1 (stereo not drawn) [Compound 22, 4-(dimethylamino)-1-(2-methoxy-5-phenylpyridin-3-yl)-1,2-diphenylbutan-2-ol]",> 50,1.48,–,1.15,12,–,–,–,–,–
"COc1ncc(-c2ccccc2)cc1C(c1ccccc1)C(O)(CCN(C)C)c1cccc(F)c1F (stereo not drawn) [Compound 31, 2-(2,3-difluorophenyl)-4-(dimethylamino)-1-(2-methoxy-5-phenylpyridin-3-yl)-1-phenylbutan-2-ol]",> 50,0.58,0.25,0.46,28.1,–,–,–,–,–
"COc1ncc(-c2ccccc2)cc1C(c1ccccc1)C(O)(CCN(C)C)c1cc(F)cc(F)c1 (stereo not drawn) [Compound 35, 2-(3,5-difluorophenyl)-4-(dimethylamino)-1-(2-methoxy-5-phenylpyridin-3-yl)-1-phenylbutan-2-ol]",> 50,0.73,≤ 0.0625,0.37,28.9,–,–,–,–,–
"COc1ncc(-c2ccccc2)cc1C(c1ccccc1)C(O)(CCN(C)C)c1cc(F)ccc1F (stereo not drawn) [Compound 39, 2-(2,5-difluorophenyl)-4-(dimethylamino)-1-(2-methoxy-5-phenylpyridin-3-yl)-1-phenylbutan-2-ol]",> 50,0.68,0.125,0.71,–,–,–,–,–,–
"COc1ncc(-c2ccccc2)cc1C(c1cccc(Cl)c1)C(O)(CCN(C)C)c1ccccc1 (stereo not drawn) [Compound 43, 1-(3-chlorophenyl)-4-(dimethylamino)-1-(2-methoxy-5-phenylpyridin-3-yl)-2-phenylbutan-2-ol]",> 50,1.18,0.125,1.42,–,–,–,–,–,–
"COc1ncc(-c2ccccc2)cc1C(c1ccc(Cl)cc1)C(O)(CCN(C)C)c1ccccc1 (stereo not drawn) [Compound 47, 1-(4-chlorophenyl)-4-(dimethylamino)-1-(2-methoxy-5-phenylpyridin-3-yl)-2-phenylbutan-2-ol]",> 50,1.25,0.125,0.75,–,–,–,–,–,–
"COc1ncc(-c2ccccc2)cc1C(c1ccccc1F)C(O)(CCN(C)C)c1ccccc1 (stereo not drawn) [Compound 51, 4-(dimethylamino)-1-(2-fluorophenyl)-1-(2-methoxy-5-phenylpyridin-3-yl)-2-phenylbutan-2-ol]",> 50,1.2,≤ 0.0625,1.77,–,–,–,–,–,–
"COc1ncc(-c2ccccc2)cc1C(c1cccc(F)c1)C(O)(CCN(C)C)c1ccccc1 (stereo not drawn) [Compound 55, 4-(dimethylamino)-1-(3-fluorophenyl)-1-(2-methoxy-5-phenylpyridin-3-yl)-2-phenylbutan-2-ol]",> 50,1.15,0.125,2.06,–,–,–,–,–,–
COc1ncc(C2CCCC2)cc1C(c1ccccc1)C(O)(CCN(C)C)c1cccc2ccccc12 (stereo not drawn) [Compound 63],> 50,–,–,–,52.9,–,–,0.75,<0.0625,1.41
"COc1ncc(-c2ccccc2)cc1C(c1ccc(F)cc1)C(O)(CCN(C)C)c1ccccc1 (stereo not drawn) [Compound 70, 4-(dimethylamino)-1-(4-fluorophenyl)-1-(2-methoxy-5-phenylpyridin-3-yl)-2-phenylbutan-2-ol]",> 50,1.49,0.125,1.33,13.7,–,–,–,–,–
"COc1cccc(C(c2cc(-c3ccccc3)cnc2OC)C(O)(CCN(C)C)c2ccccc2)c1OC (stereo not drawn) [Compound 71, 1-(2,3-dimethoxyphenyl)-4-(dimethylamino)-1-(2-methoxy-5-phenylpyridin-3-yl)-2-phenylbutan-2-ol]",> 50,1.4,≤ 0.0625,1.47,–,–,–,–,–,–
"COc1ncc(C2CCOCC2)cc1C(c1ccccc1)C(O)(CCN(C)C)c1cccc2ccccc12 (stereo not drawn) [Compound 75, 4-(dimethylamino)-1-(2-methoxy-5-(tetrahydro-2H-pyran-4-yl)pyridin-3-yl)-2-(naphthalen-1-yl)-1-phenylbutan-2-ol]",> 50,1.32,0.125,2.73,22.5,–,–,–,–,–
"COc1ncc(-c2ccccc2F)cc1C(c1ccccc1)C(O)(CCN(C)C)c1cccc2ccccc12 (stereo not drawn) [Compound 83, 4-(dimethylamino)-1-(5-(2-fluorophenyl)-2-methoxypyridin-3-yl)-2-(naphthalen-1-yl)-1-phenylbutan-2-ol]",> 50,1.41,0.125,0.57,–,–,–,–,–,–
"COc1ncc(-c2cccc(F)c2)cc1C(c1ccccc1)C(O)(CCN(C)C)c1cccc2ccccc12 (stereo not drawn) [Compound 87, 4-(dimethylamino)-1-(5-(3-fluorophenyl)-2-methoxypyridin-3-yl)-2-(naphthalen-1-yl)-1-phenylbutan-2-ol]",> 50,0.48,≤ 0.0625,1.18,62.8,–,–,–,–,–
COc1ncc(-c2cccc(Cl)c2)cc1C(c1ccccc1)C(O)(CCN(C)C)c1cccc2ccccc12 (stereo not drawn) [Compound 111],> 50,2.73,0.5,1.36,–,–,–,–,–,–
"COc1ncc(-c2ccc(Br)cc2)cc1C(c1ccccc1)C(O)(CCN(C)C)c1cc(F)ccc1F (stereo not drawn) [Compound 308, 1-(5-(4-bromophenyl)-2-methoxypyridin-3-yl)-2-(2,5-difluorophenyl)-4-(dimethylamino)-1-phenylbutan-2-ol]",> 32,0.09,–,0.19,> 64,–,–,–,–,–
COc1ncc(-c2ccc(Cl)cc2)cc1C(c1ccc(Cl)cc1)C(O)(CCN(C)C)c1cccc2ccccc12 (stereo not drawn) [Compound 329],> 32,0.08,–,2.02,> 64,–,–,–,–,–
COc1cc(-c2cnc(OC)c(C(c3ccccc3)C(O)(CCN(C)C)c3cccc4ccccc34)c2)ccc1Cl (stereo not drawn) [Compound 379],–,–,0.125,–,61.8,–,–,–,–,–
"NNC(=O)c1ccncc1 [isoniazide, isoniazid, reference compound]",–,–,–,–,–,0.37,0.53,–,–,–
"CO[C@H]1/C=C/O[C@@]2(C)Oc3c(C)c(O)c4c(O)c(c(/C=N/N5CCN(C)CC5)c(O)c4c3C2=O)NC(=O)/C(C)=C\C=C\[C@H](C)[C@H](O)[C@@H](C)[C@@H](O)[C@@H](C)[C@H](OC(C)=O)[C@@H]1C [rifampin, reference compound]",–,–,–,–,–,0.12,0.24,–,–,–
